From US11859252B2, “Diagnostic and therapeutic methods for cancer” (Genentech, Inc., priority 2017, dated 2024)
“Also recorded” adds a separate entry of the source. Values belong to the compound of their own block, whether it stands above or below them.

Experiments:
pMEK, pERK, pRSK, pAKT = test: Immunoblot of pathway markers after compound treatment; assay type: cell-based; conditions: for induction of pMEK by PI3K inhibition: A549 and HCT116 cells, FIGS. 7B-7D
Experimental: Cells lysed in lysis buffer (0.5% NP40, 20 mM Tris, pH 7.5, 137 mM NaCl, 10% glycerol, 1 mM EDTA) plus protease inhibitor mixture-complete mini (Roche Applied Science, 11836170001) and phosphatase inhibitor mix (Thermo, 78426). Lysates were centrifuged at 15,000 rpm for 10 minutes and the protein concentration determined using BCA (Thermo, 23227). Equal amounts of protein were subjected to SDS-PAGE NuPAGE 4-12% Bis-Tris Gel (Novex, WG-1403) and transferred to nitrocellulose membrane (BioRad, 170-4159). After blocking in blocking buffer (Li-Cor, 927-40000), membranes were incubated with the indicated primary antibodies and analyzed either by the addition of secondary antibodies IRDye 680LT Goat anti-Mouse IgG (H+L) (Li-Cor, 926-68050) or IRDye 800CW goat anti-Rabbit IgG (H+L) (Li-Cor, 926-32211). The membranes were visualized on the LiCor Odyssey CLx Scanner.

A549 cells [1] = test: 12×12 matrix titration, Bliss excess, […]-GLO; assay type: cell-based; conditions: 3 days
Experimental: For combination synergy studies, cells were plated in 384-well plates (Corning) and treated with varying concentrations of compound, either alone or in combination for 72 hours. Cell viability was determined using CellTiter-Glo Luminescent Cell Viability Assay (Promega, G7573). Synergistic effects were determined using the Bliss independence analysis methods (Greco et al. Pharmacol. Rev. 47: 331-385, 1995; Chou and Talalay. Adv. Enzyme Regul. 22:27-55, 1984; Chou. Cancer Res. 70: 440-446, 2010; Bliss. Ann. Appl. Biol. 25: 31, 1939).

A549 cells [2] = test: Clonogenic (colony growth) assay; assay type: cell-based; conditions: 8 days; crystal violet; FIG. 2F, 5E
Experimental: Cells were plated in duplicate in 6-well plates at 10,000 cells/well, allowed to attach overnight and treated for 8 days with the indicated compounds. Media with appropriate compounds was replenished every 72 hours. At 8 days cells were rinsed once with PBS, fixed and stained with crystal violet solution (Sigma Aldrich, HT90132) for 20 minutes and washed with water.

[3] = system: MAPK pathway signaling (pERK, pRSK, DUSP6, SPRY4); test: Tumor pharmacodynamics in tumor-bearing mice; assay type: in vivo; conditions: combination of LY3009120 and GDC-0973 vs either alone, 4 days of treatment, FIG. 3C
Experimental: GEM model tumor samples were collected and stored in RNALater (Qiagen, Valencia, CA). Total RNA was extracted with RNeasy Plus Mini kit (Qiagen) following manufacturer's instructions. RNA quantity was determined using Nanodrop (Thermo Scientific, Waltham, MA).
Transcriptional readouts were assessed using either a Fluidigm instrument or standard RT-PCR assays according to manufacturer's recommendations. RNA (100 ng) was subjected to cDNA synthesis/pre-amplification reactions using the Applied Biosystems High Capacity cDNA RT Kit and TaqMan PreAmp Master Mix as per the manufacturer's protocol (Life Technologies, Carlsbad, CA). […]
To prepare protein lysates, cells were washed once with ice-cold PBS and lysed in 1× Cell Extraction Buffer (Invitrogen) supplemented with protease inhibitor tablet (Roche) and phosphatase inhibitors (Sigma). Protein concentration was determined using BCA Protein Assay (Pierce). […] Antigen-antibody interaction was detected with HRP-conjugated goat anti-rabbit and goat anti-mouse antibodies (Jackson ImmunoResearch) using enhanced chemiluminescence detection reagents (Pierce) or with IRDye 800 conjugated, affinity purified anti rabbit IgG (LI-COR Biosciences) and Alexa Fluor 680 goat anti mouse IgG (Life Technologies) secondary antibodies using the Odyssey Infrared Imaging System (LI-COR Biosciences).

[4] = Plasma and tumor drug concentrations; assay type: in vivo, mice; conditions: combination with GDC-0973, FIG. 3D
[5] = system: NRAS mutant melanoma cell line; test: Viability of NRAS mutant melanoma versus BRAF-V600E and wild-type lines; assay type: cell-based; conditions: FIG. 8A
Experimental: Compounds were screened in nine-point dose response using a three-fold dilution. Cells were seeded into 384-well plates 24 hours prior to compound addition. Cells were then incubated with compound for 72 hours or 120 hours before assaying viability (CellTiter-Glo, Promega). Assays were performed in biological triplicate. […] Mean viability is equivalent to the area under the log-dose/viability curve divided by the total number of tested doses.

[6] = system: HCT116 colon xenograft tumor; test: HCT116 colon xenograft tumor model
Experimental: The formulations were mixed well by vortexing before dosing. Test articles were stored in a refrigerator set to maintain a temperature range of 4° C.-7° C.
Only animals that appeared to be healthy and that were free of obvious abnormalities were used for each study. Tumor volumes were determined using digital calipers (Fred V. Fowler Company, Inc.) using the formula (L×W×W)/2. […] Mice were weighed twice a week using a standard scale.

[7] = system: A549 KRAS-mutant lung cancer cell line; test: Tool compound combination screen with AZ-628; assay type: cell-based; conditions: 1 μM AZ-628 versus DMSO, FIG. 1D-1E
Experimental: A compound library comprising 480 compounds arrayed in 9-point dose response was screened in the absence or presence of a fixed dose of either AZ-628 or DMSO in A549 cells. A549 cells were seeded into 384 well plates, and compound was added 24 h later. Cell viability was determined 120 h post-compound addition (CellTiter Glo). Curves were fitted, and both IC50 and mean viability metrics were calculated. The IC50 is the dose at which inhibition is 50% relative to untreated wells. The mean viability is the average of the fitted viabilities at each tested dose. Mean viability is equivalent to the area under the log-dose/viability curve divided by the total number of tested doses. All data were fitted using Genedata Screener (GDS) software. The combination metric was the difference in mean viability between the AZ-628 treated arm and the DMSO treated arm for each compound.

KRAS mutant cell lines = test: 3-day […]-GLO viability assay of RAF inhibitors, KRAS mutant lines; assay type: cell-based; conditions: single agent, FIG. 1A
Experimental: (§1) Seeding densities were optimized for each cell line to obtain 70-80% confluence after 4 days. The cells were plated into 384-well plates (Griener, 781091) and then treated with compound the following day in a final DMSO concentration of 0.1%. The relative numbers of viable cells were measured by luminescence using CellTiter-Glo (Promega, G7573). Viability curves were generated using a four-parameter fit in GraphPad Prism 6.

BRAF-V600E cell lines = test: 3-day […]-GLO viability assay of RAF inhibitors, BRAF-V600E lines; assay type: cell-based; conditions: single agent; BRAF-V600E mutant cell lines; FIG. 1A
Experimental: as §1

pMEK = test: Phospho (Ser 217/221)/Total MEK1/2 assay; assay type: cell-based; conditions: KRAS mutant; ratio of P-MEK and total MEK; FIG. 1B
Experimental: Cells were plated at a density of 20,000 cells per 96-well and treated with compound the following day for two hours in a final concentration of 0.2% DMSO. After two hours, the cells were lysed according to manufacturer's protocol (Meso Scale Discovery, K15129D), and the lysates were added to BSA-blocked plates for overnight capture at 4° C. The following day the assay plates were washed three times with TBST and the detection antibody was added for one hour at RT. The plates were then washed three times with TBST. 1× read buffer was added to the plate and immediately read on the Meso Scale Discovery SECTOR Imager 6000. Curves were generated using Graph Pad Prism 6.

RAS-GTP = test: Ras activity assay (RAF1-RBD pull-down); assay type: cell-based; conditions: A549, 24 hours, RAF1-RBD pull-down, FIG. 7E
Experimental: Levels of active GTP-loaded Ras were determined by GST-Raf-RBD pull-down assay (Thermo Scientific, 16117). In brief, GST-Raf-RBD fusion proteins were incubated with glutathione beads, and cells were collected in lysis buffer as recommended by the manufacturer. The cell lysates were incubated with the GST-Raf-RBD immobilized beads for 1.5 hours at 4° C. Bound proteins were eluted with SDS sample buffer and analyzed by Western blot.

Compound: CNS(=O)(=O)Nc1nccc(Cc2c(C)c3ccc(Oc4ncccn4)cc3oc2=O)c1F [CH-6766]
- induction of pMEK (pMEK, pERK, pRSK, pAKT; A549 cells, 24 hours at 1 μM, FIG. 1F): do not induce pMEK
- synergy with AZ-628 (Bliss excess) (A549 cells [1]; full-dose Bliss matrix, FIG. 1G): less synergistic with AZ-628

- drug exposure in combination [4]: not due to increased drug exposure
Compound: CNc1ncc2cc(-c3cc(NC(=O)NCCC(C)(C)C)c(F)cc3C)c(C)nc2n1 [LY3009120]
- synergy with cobimetinib in colony formation (A549 cells [2]): marked synergy
- suppression of DUSP6 and SPRY4 in tumor [3]: deeper suppression of downstream MAPK target genes, DUSP6 and SPRY4
- suppression of pERK and pRSK in tumor ([3]; all time points): better suppression of pERK and pRSK
- effect on mean viability, NRAS mutant vs BRAF-V600E [5]: approximately equivalent effects on mean viability
- tumor growth, combination with cobimetinib ([6]; HCT116, LY3009120+GDC-0973, FIG. 3A): capable of effectively regressing the tumors
- tumor growth, single agent ([6]; HCT116, LY-3009120 25 mg/kg IP QD, cobimetinib 5 mg/kg PO QD, FIG. 3A): modestly inhibited tumor growth
- tolerability / body weight ([6]; HCT116 xenograft mice, combination with cobimetinib, FIG. 3B): well tolerated in the mice, resulting in little or minimal changes in body weight post-treatment

Compound: O=C(NOC[C@H](O)CO)c1ccc(F)c(F)c1Nc1ccc(I)cc1F [PD901]
- hit ranking / mean viability difference with AZ-628 [7]: scored highest among the compounds tested

Compound: O=C(c1c(F)ccc(NS(=O)(=O)N2CC[C@@H](F)C2)c1F)c1c[nH]c2ncc(-c3cnc(C4CC4)nc3)cc12 [PLX-8394]
- activity in cell viability assay (KRAS mutant cell lines): but not in KRAS mutant cell lines
- activity in cell viability assay (BRAF-V600E cell lines): showed activity in BRAF-V600E mutant cell lines
- paradoxical activation of downstream pMEK (pMEK): do not induce paradoxical activation
- synergy with cobimetinib (Bliss excess) (A549 cells [1]; FIG. 2A): did not synergize with MEK inhibitors in KRAS mutant cell lines

Compound: CC(C)(C)c1nc(-c2cccc(NS(=O)(=O)c3c(F)cccc3F)c2F)c(-c2ccnc(N)n2)s1 [dabrafenib]
- activity in cell viability assay (KRAS mutant cell lines): but not in KRAS mutant cell lines
- activity in cell viability assay (BRAF-V600E cell lines): showed activity in BRAF-V600E mutant cell lines
- paradoxical activation of downstream pMEK (pMEK): led to paradoxical activation of downstream pMEK in KRAS mutant tumors

Compound: CS(=O)(=O)N1CCN(Cc2cc3nc(-c4cccc5[nH]ncc45)nc(N4CCOCC4)c3s2)CC1 [pictilisib]
- RAS-GTP levels (RAS-GTP): dose-dependent induction of RAS-GTP levels
- RAS-GTP levels (RAS-GTP; listed as Pictilisib): increase levels of RAS-GTP (albeit at higher concentrations) similar to that induced by cobimetinib
- pERK and pRSK levels (pMEK, pERK, pRSK, pAKT; A549, 24 hours, dose-dependent, FIG. 7D): increased pERK and pRSK levels
- pAKT inhibition (pMEK, pERK, pRSK, pAKT; A549, pictilisib alone, 24 hours, FIG. 7G): robustly inhibit pAKT
- induction of pMEK by PI3K inhibition (pMEK, pERK, pRSK, pAKT; 24 hours): doing so at lower concentrations; also recorded: dose-dependent induction of pMEK
- hit ranking / mean viability difference with AZ-628 [7]: notable hits; also recorded: among the top hits of the screen

Compound: O=C(NC[C@H](O)CO)c1ccncc1Nc1ccc(I)cc1F [pimasertib]
- hit ranking / mean viability difference with AZ-628 [7]: scored highest among the compounds tested

Compound: COc1cc(F)c(F)c(Nc2ccc(I)cc2F)c1NS(=O)(=O)C1(C[C@H](O)CO)CC1 [refametinib]
- hit ranking / mean viability difference with AZ-628 [7]: scored highest among the compounds tested

Compound: Cc1nc(-c2cn3c(n2)-c2ccc(-c4cnn(C(C)(C)C(N)=O)c4)cc2OCC3)n(C(C)C)n1 [taselisib]
- induction of pMEK by PI3K inhibition (pMEK, pERK, pRSK, pAKT; 24 hours): doing so at lower concentrations
- hit ranking / mean viability difference with AZ-628 [7]: notable hits
